Results: publication PMC10584882 (Communications Biology, 2023)
“And” between values parts separate entries of the source, which are not always exact repeats. Identical values can stand only once.

How the values were obtained:
[1] = tested on: SARS-CoV-2; assay: Cytopathic effect inhibition assay in VERO-CCL81 cells; format: cell-based; details: for CPE inhibition (%): VERO CCL81, two experiments, listed as S-Calpepin
[2] = target: T1, human CatK (Homo sapiens, UniProt P43235); assay: Cathepsin inhibition test, CatK; format: biochemical; details: for Residual activity (Vi/V0): Fig. S3 panel a, single replicates
T1 construct: made in house
T1 sequence (P43235 115-329): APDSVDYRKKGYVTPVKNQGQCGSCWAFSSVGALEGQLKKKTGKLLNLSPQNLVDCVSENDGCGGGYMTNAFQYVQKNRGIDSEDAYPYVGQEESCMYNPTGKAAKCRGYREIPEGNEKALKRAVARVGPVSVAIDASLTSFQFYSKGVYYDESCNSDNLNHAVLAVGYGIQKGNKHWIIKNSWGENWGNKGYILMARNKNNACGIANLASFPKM

[3] = tested on: VERO-CCL81 cells; assay: Cell viability assay (CellTiter-Glo), VERO-CCL81; format: cell-based; details: for Cell viability (% control): VERO CCL81, 72 h, replicates of experiments 1 and 2
Protocol: (§1) VERO-CCL81 was seeded in 96-well plates at a density of 1.5×10^4 cells/well, while LC-HK2 was seeded at a density of 3×10^4 cells/well, following 24 h incubation at 37 °C and 5% CO2 atmosphere. The cell culture media was replaced by serial dilutions of the compounds and the cell viability was determined 72 h post-treatment via CellTiter-Glo® Luminescent Cell Viability Assay (Promega), following the manufacturer’s instructions. Luminescent signal was recorded using a CLARIOstar multi-mode microplate reader (BMG Labtech, Germany). Graphs were generated using GraphPad Prism software version 8.0 (La Jolla, CA, USA, www.graphpad.com). Samples deemed to be technical failures and extreme outlier were removed.

[4] = tested on: LC-HK2 cells; assay: Cell viability assay (CellTiter-Glo), LC-HK2; format: cell-based, human; details: for Cell viability (% control): LC-HK2, 72 h, replicates
Protocol: as §1

[5] = Anti-viral experiment with Golden Syrian hamsters: body weight; format: in vivo, Golden Syrian hamsters (Mesocricetus auratus); details: G1 SARS-CoV-2 infected, 1 mg/kg s.c. daily, individual animals, 1 mg/kg

CCCC[C@H](NC(=O)[C@H](CC(C)C)NC(=O)OCc1ccccc1)C(O)S(=O)(=O)[O-].[Na+] (stereo partly shown) [S-Calpeptin]
CPE inhibition (%) ([1]; 0.0781 μM): 0% and 0.33% | CPE inhibition (%) ([1]; 0.625 μM): 38.01% and 20.29% | CPE inhibition (%) ([1]; 1.25 μM): 52.68% and 61.52% | CPE inhibition (%) ([1]; 2.5 μM): 60.88% and 68.39% | CPE inhibition (%) ([1]; 5 μM): 63.97% and 88.53% | CPE inhibition (%) ([1]; 10 μM): 67.47% and 80.91% | EC50 ([1]; VERO-CCL81, CellTiter-Glo, 48 h post-infection, read-out: CPE inhibition EC50): 700 nM | Residual activity (Vi/V0) ([2]; inhibitor 0.010 nM, 10 pM): 1.028 and 1.067 and 0.9629 and 0.9414 and 0.9225 | Residual activity (Vi/V0) ([2]; inhibitor 0.018 nM, 18 pM): 1.062 and 1.238 and 0.9724 and 0.8624 and 0.8684 | Residual activity (Vi/V0) ([2]; inhibitor 0.032 nM, 32 pM): 0.9319 and 1.215 and 0.8238 and 0.889 and 0.8605 | Residual activity (Vi/V0) ([2]; inhibitor 0.058 nM, 58 pM): 0.7562 and 0.8292 and 0.7671 | Residual activity (Vi/V0) ([2]; inhibitor 0.105 nM, 0.000105 µM): 1.104 and 0.8757 and 0.7581 and 0.6636 and 0.6847 | Residual activity (Vi/V0) ([2]; inhibitor 0.189 nM, 0.000189 µM): 0.6363 and 0.7129 and 0.6855 and 0.6137 and 0.6926 | Residual activity (Vi/V0) ([2]; inhibitor 0.340 nM, 0.00034 µM): 0.4419 and 0.3556 and 0.547 and 0.5599 and 0.6191 | Residual activity (Vi/V0) ([2]; inhibitor 0.612 nM, 0.000612 µM): 0.562 and 0.5894 and 0.4634 and 0.3938 and 0.3707 | Residual activity (Vi/V0) ([2]; inhibitor 1.103 nM, 0.001103 µM): 0.4683 and 0.4274 and 0.3853 and 0.3355 and 0.2949 | Residual activity (Vi/V0) ([2]; inhibitor 1.985 nM, 0.001985 µM): 0.2888 and 0.2948 and 0.2332 and 0.2265 and 0.1772 | Residual activity (Vi/V0) ([2]; inhibitor 3.572 nM, 0.003572 µM): 0.2021 and 0.2433 and 0.1658 and 0.1472 and 0.1161 | Residual activity (Vi/V0) ([2]; inhibitor 6.430 nM, 0.00643 µM): 0.1399 and 0.09741 and 0.09721 and 0.03496 | Residual activity (Vi/V0) ([2]; inhibitor 11.547 nM, 0.011547 µM): 0.01107 and 0.1108 and 0.1149 and 0.0689 and 0.02957 | Residual activity (Vi/V0) ([2]; inhibitor 20.833 nM, 0.020833 µM): 0.08599 and -0.06715 and 0.04731 and 0.03845 and 0.01885 | Residual activity (Vi/V0) ([2]; inhibitor 37.500 nM, 0.0375 µM): -0.05695 and -0.1347 and 0.027 and 0.005377 and -0.00068 | Ki ([2]; mean with standard deviation and 95% confidence interval, pH 5.5, 37 °C): 0.05 nM | Cell viability (% control) ([3]; 0.0781 μM): 99.91 % control and 99.99 % control and 93.43 % control | Cell viability (% control) ([3]; 0.1563 μM): 101.27 % control and 99.33 % control and 91.02 % control | Cell viability (% control) ([3]; 0.3125 μM): 98.12 % control and 96.79 % control and 88.9 % control and 104.51 % control and 93.11 % control and 88.49 % control | Cell viability (% control) ([3]; 0.625 μM): 102.02 % control and 99.32 % control and 91.53 % control and 106.07 % control and 99.18 % control and 92.52 % control | Cell viability (% control) ([3]; 1.25 μM): 101.8 % control and 101.21 % control and 92.78 % control and 102.28 % control and 98.11 % control and 94.97 % control | Cell viability (% control) ([3]; 2.5 μM): 103.7 % control and 100.66 % control and 93.92 % control and 107.86 % control and 99.28 % control and 84.04 % control | Cell viability (% control) ([3]; 5 μM): 103.66 % control and 103.11 % control and 94.78 % control and 109.88 % control and 106.46 % control and 91.66 % control | Cell viability (% control) ([3]; 10 μM): 95.16 % control and 96.86 % control and 93.25 % control and 107.42 % control and 101.38 % control and 83.78 % control | cytotoxicity (in words) ([3]; VERO-CCL81, 72 h): no cytotoxicity up to low micromolar concentrations | cytotoxicity (in words) ([4]; LC-HK2, 72 h): no cytotoxicity up to low micromolar concentrations | Cell viability (% control) ([4]; 0.0006 μM): 101.91 % control and 100.87 % control and 100.74 % control | Cell viability (% control) ([4]; 0.0012 μM): 103 % control and 98.5 % control and 94.37 % control | Cell viability (% control) ([4]; 0.0024 μM): 103.56 % control and 100.06 % control and 97.94 % control | Cell viability (% control) ([4]; 0.0049 μM): 100.56 % control and 101.52 % control and 96.13 % control | Cell viability (% control) ([4]; 0.0098 μM): 103.39 % control and 98.29 % control and 93.66 % control | Cell viability (% control) ([4]; 0.0195 μM): 101 % control and 102.2 % control and 97.31 % control | Cell viability (% control) ([4]; 0.0391 μM): 101.11 % control and 100.82 % control and 93.61 % control | Cell viability (% control) ([4]; 0.0781 μM): 95.36 % control and 95.43 % control and 89.73 % control and 94.91 % control and 94.76 % control and 87.15 % control | Cell viability (% control) ([4]; 0.1563 μM): 94.91 % control and 93.6 % control and 89 % control and 98.33 % control and 105.61 % control and 98.34 % control | Cell viability (% control) ([4]; 0.3125 μM): 97.71 % control and 92.81 % control and 89.53 % control and 99.96 % control and 101.2 % control | Cell viability (% control) ([4]; 0.625 μM): 99.27 % control and 95.19 % control and 89.18 % control and 98.53 % control and 102.88 % control and 100.16 % control | Cell viability (% control) ([4]; 1.25 μM): 94.67 % control and 92.11 % control and 87.48 % control and 95.09 % control and 95.4 % control and 94.79 % control | Cell viability (% control) ([4]; 2.5 μM): 94.03 % control and 92.7 % control and 88.37 % control and 89.79 % control and 94.67 % control and 93.9 % control | Cell viability (% control) ([4]; 5 μM): 91.36 % control and 87.95 % control and 86.97 % control and 86.06 % control and 93.58 % control and 92 % control | Cell viability (% control) ([4]; 10 μM): 83.09 % control and 79.77 % control and 75 % control and 90.37 % control and 93.49 % control and 89.11 % control | Cell viability (% control) ([4]; 100 μM): 73.52 % control and 81.33 % control and 73.97 % control | body weight, individual data ([5]; Day 1): 142 g and 136 g and 131 g and 130 g and 132 g and 133 g and 125 g and 128 g and 123 g and 114 g and 117 g and 111 g | body weight, individual data ([5]; Day 2): 139 g and 141 g and 136 g and 131 g and 128 g and 132 g and 123 g and 127 g and 120 g and 111 g and 116 g and 108 g | body weight, individual data ([5]; Day 3): 138 g and 133 g and 132 g and 125 g and 128 g and 131 g and 123 g and 122 g and 126 g and 118 g and 121 g and 111 g and 115 g and 106 g
